US5045548A, “Quinolyl methoxy compounds and their use as antiasthmatic agents” (Fujisawa Pharmaceutical Company, Ltd., priority 1987, dated 1991)
Structures can show the parent of a compound that is named as a salt.

System: SRS-A (Slow Reacting Substance of Anaphylaxis) synthesis in rat polymorpholeukocyte (PMN)
Assay: Inhibitory Activity of SRS-A synthesis in rat polymorpholeukocyte (PMN) using the calcium ionophore A23187 (i-LTC4 by radioimmunoassay)
Format: cell-based, rat (male Sprague-Dawley)
Details: 10 μM A23187, 15 min, 37° C.
Description: Test I: Inhibitory Activity of SRS-A (Slow Reacting Substance of Anaphylaxis) synthesis in rat polymorpholeukocyte (PMN) of using the calcium ionophore Male Sprague-Dawley rats weighing 250-300 g were anesthetized with ether and each was injected intraperitoneally with 20 ml of 0.1% clycogen (from Oyster). After 20 hours the rats were sacrificed and PMN were recovered in rinse of the peritoneal cavity with 10 ml Dulbeccos PBS (components in g/L: CaCl2 0.1, KH2 PO4 0.2, MgCl2.6H2 O 0.1, NaCl 8.0, Na2 HPO4.7H2 O 2.16; pH7.4). These rinses were filtered through nylon wool filter and centrifuged for 5 min at 1000 xg. The pellet was suspended in Dulbeccos PBS and centrifuged for 5 min at 1000 xg. The pellet was resuspended in Dulbeccos PBS and adjusted the cell concentration to 10^7 cells/ml with Dulbeccos PBS. Samples were dissolved in ethanol and dispersed in Dulbeccos PBS to give a concentration of 10^-10 -10^-5 M Antibiotic A23187; calcium ionophor ([…] Diagnostics) (hereinafter referred to A23187) in DMSO(10mM) was diluted with Dulbeccos PBS to give the concentration of 1 mM. Aliquots of the cell suspension (1×10^7 cells/ml, 0.98 ml) were equilibrated for 30 min at 37° C. Solution of sample(10 μl) was added and incubated for 15 min at 37° C. before the addition of 10 μl of A23187 solution. Thus the final incubation volume of 1 ml contained approximately 1×10^7 cells, 10^-10 -10^-5 M samples and 10 μM A23187. Incubation with A23187 were continued for 15 min at 37° C. The reactions were terminated by setting the assay tubes in ice bath to chill as rapidly as possible to 4° C. The test tubes were centrifuged at 1500 xg for 5 min at 4° C. and decanted the supernatants into the tubes and kept cold prior to assaying. The concentration of i-LTC4 in the cell-free supernatants from the incubations were determined by specific radioimmunoassay. The mean values of i-LTC4 (these incubations were carried out in duplicate) of each sample were calculated and the effect of samples on the synthesis of the leukotrienes was presented as a percentage of the value in the absence of samples.

Structure (SMILES)	IC50 (Rattus norvegicus, 0.25 h)	IC50 (hydrochloride)
CCCCC1(CCCC)CCc2c(OCc3ccc4ccccc4n3)cccc2C1O (single isomer, unassigned; (+)) [Example 41, (+)-2,2-dibutyl-5-(2-quinolylmethoxy)-1,2,3,4-tetrahydro-1-naphthol hydrochloride]	–	5.6 nM
CCCCC1(CCCC)CCc2c(OCc3ccc4ccccc4n3)cccc2C1O (stereo not drawn) [Example 6, 2,2-dibutyl-5-(2-quinolylmethoxy)-1,2,3,4-tetrahydro-1-naphthol]	8.7 nM	–
CCCCC1(CCCC)CCc2c(OCc3ccc(C(N)=O)cc3)cccc2C1O (stereo not drawn) [Example 16, 2,2-Dibutyl-5-(4-carbamoylbenzyloxy)-1,2,3,4-tetrahydro-1-naphthol]	370 nM	–
CCCCC1CCc2c(OCc3ccc4ccccc4n3)cccc2C1=O (stereo not drawn) [Example 17, 2-Butyl-3,4-dihydro-5-(2-quinolylmethoxy)-1(2H)-naphthalenone]	1900 nM	–
CCCCC1(CCCC)CCc2ccc(OCc3ccc4ccccc4n3)cc2C1=O [Example 19, 2,2-Dibutyl-3,4-dihydro-7-(2-quinolylmethoxy)-1(2H)-naphthalenone]	1100 nM	–
CCCCC1CCc2ccc(OCc3ccc4ccccc4n3)cc2C1O (stereo not drawn) [Example 21, 2-butyl-7-(2-quinolylmethoxy)-1,2,3,4-tetrahydro-1-naphthol hydrochloride]	430 nM	–
CCCCC1(CCCC)CCc2ccc(OCc3ccc4ccccc4n3)cc2C1O (stereo not drawn) [Example 22, 2,2-Dibutyl-7-(2-quinolylmethoxy)-1,2,3,4-tetrahydro-1-naphthol hydrochloride]	860 nM	–
CCCCC1CCc2ccc(OCc3ccc4ccccc4n3)cc2C1=O (stereo not drawn) [Example 23, 2-Butyl-3,4-dihydro-7-(2-quinolylmethoxy)-1(2H)-naphthalenone hydrochloride]	1100 nM	–
CCCCC1(CCCC)CCc2c(OCc3ccc4ccccc4n3)cccc2C1=O [Example 25, 2,2-Dibutyl-3,4-dihydro-5-(2-quinolylmethoxy)-(1(2H)-naphthalenone hydrochloride]	620 nM	–
CCCCC1(CCCC)CCc2c(OCc3ccc4ccccc4n3)ccc(O)c2C1=O [Example 38, 2,2-Dibutyl-3,4-dihydro-8-hydroxy-5-(2-quinolylmethoxy)-1(2H)-naphthalenonehydrochloride]	360 nM	–
CCCCC1(CCCC)CCc2c(OCc3ccc4ccccc4n3)ccc(C)c2C1=O [Example 39]	640 nM	–

Further lines, with some results ahead:

IC50 (Rattus norvegicus, 0.25 h)	Structure (SMILES)	IC50 (hydrochloride)
280 nM	CCCCC1(CCCC)Cc2c(OCc3ccc4ccccc4n3)cccc2C1=O [Example 5, 2,2-Dibutyl-4-(2-quinolylmethoxy)-1-indanone hydrochloride]	–
81 nM	CCCCC1(CCCC)CCc2c(OCc3ccccn3)cccc2C1O (stereo not drawn) [Example 7, 2,2-dibutyl-5-(2-pyridylmethoxy)-1,2,3,4-tetrahydro-1-naphthol]	–
160 nM	CCCCC1(CCCC)CCc2c(OCc3ccccc3C(N)=O)cccc2C1O (stereo not drawn) [Example 8, 2,2-dibutyl-5-(2-carbamoylbenzyloxy)-1,2,3,4-tetrahydro-1-naphthol]	–
50 nM	CCCCC1(CCCC)CCc2c(OCc3nc4ccccc4s3)cccc2C1O (stereo not drawn) [Example 11, 2,2-Dibutyl-5-(2-benzothiazolylmethoxy)-1,2,3,4-tetrahydro-1-naphthol]	–
120 nM	CCCCC1(CCCC)CCc2c(OCc3ccncc3)cccc2C1O (stereo not drawn) [Example 12, 2,2-Dibutyl-5-(4-pyridylmethoxy)-1,2,3,4-tetrahydro-1-naphthol]	–
15 nM	CCCC1(CCC)CCc2c(OCc3ccc4ccccc4n3)cccc2C1O (stereo not drawn) [Example 13, 2,2-Dipropyl-5-(2-quinolylmethoxy)-1,2,3,4-tetrahydro-1-naphthol]	–
42 nM	CCCCCC1(CCCCC)CCc2c(OCc3ccc4ccccc4n3)cccc2C1O (stereo not drawn) [Example 14, 2,2-Dipentyl-5-(2-quinolylmethoxy)-1,2,3,4-tetrahydro-1-naphthol]	–
210 nM	CCCCC1(CCCC)Cc2c(OCc3ccc4ccccc4n3)cccc2C1O (stereo not drawn) [Example 15, 2,2-Dibutyl-4-(2-quinolylmethoxy)-1-indanol]	–
83 nM	CCCCC1CCc2c(OCc3ccc4ccccc4n3)cccc2C1O (stereo not drawn) [Example 20, 2-Butyl-5-(2-quinolylmethoxy)-1,2,3,4-tetrahydro-1-naphthol]	–
210 nM	CCCCC1(CCCC)CCc2c(OCc3nc4ccccc4n3C)cccc2C1O (stereo not drawn) [Example 26, 2,2-Dibutyl-5-[2-(1-methylbenzimidazolyl)methoxy]-1,2,3,4-tetrahydro-1-naphthol]	–
300 nM	CCCCC1(CCCC)CCc2c(OCC3=C(C)C(=O)c4ccccc4C3=O)cccc2C1O (stereo not drawn) [Example 27, 2,2-Dibutyl-5-[2-(3-methyl-1,4-naphthalenedionyl)methoxy]-1,2,3,4-tetrahydro-1-naphthol]	–
14 nM	CCCCC1(CCCC)CCc2c(OCc3ccc4ccccc4n3)ccc(Cl)c2C1O (stereo not drawn) [Example 33, 8-chloro-2,2-dibutyl-5-(2-quinolylmethoxy)-1,2,3,4-tetrahydro-1-naphthol]	–
2.2 nM	CCCCC1(CCCC)CCc2c(OCc3ccc4ccccc4n3)ccc(F)c2C1O (stereo not drawn) [Example 34, 2,2-Dibutyl-8-fluoro-5-(2-quinolylmethoxy)-1,2,3,4-tetrahydro-1-naphthol]	–
6.5 nM	CCCCC1(CCCC)CCc2c(OCc3ccc4ccccc4n3)ccc(C)c2C1O (stereo not drawn) [Example 35, 2,2-Dibutyl-8-methyl-5-(2-quinolylmethoxy)-1,2,3,4-tetrahydro-1-naphthol]	–
120 nM	CCCCC1(CCCC)CCc2c(OCc3ccc4ccccc4n3)ccc(O)c2C1O (stereo not drawn) [Example 36, 2,2-Dibutyl-8-hydroxy-5-(2-quinolylmethoxy)-1,2,3,4-tetrahydro-1-naphthol hydrochloride]	–
2.5 nM	CC(C)CC1(CC(C)C)CCc2c(OCc3ccc4ccccc4n3)cccc2C1O (stereo not drawn) [Example 37, 2,2-Diisobutyl-5-(2-quinolylmethoxy)-1,2,3,4-tetrahydro-1-naphthol]	–
